{
  "source": "patent US10662156B2",
  "about": "“Guanidine derivative and medical use thereof” (Toray Industries, Inc., priority 2016, dated 2020)",
  "molecular_target": "recombinant GST fusion MALT1 (human MALT1) (Homo sapiens (Human), UniProt Q9UDY8)",
  "sequence (Q9UDY8 whole entry, the tested form may be a part)": "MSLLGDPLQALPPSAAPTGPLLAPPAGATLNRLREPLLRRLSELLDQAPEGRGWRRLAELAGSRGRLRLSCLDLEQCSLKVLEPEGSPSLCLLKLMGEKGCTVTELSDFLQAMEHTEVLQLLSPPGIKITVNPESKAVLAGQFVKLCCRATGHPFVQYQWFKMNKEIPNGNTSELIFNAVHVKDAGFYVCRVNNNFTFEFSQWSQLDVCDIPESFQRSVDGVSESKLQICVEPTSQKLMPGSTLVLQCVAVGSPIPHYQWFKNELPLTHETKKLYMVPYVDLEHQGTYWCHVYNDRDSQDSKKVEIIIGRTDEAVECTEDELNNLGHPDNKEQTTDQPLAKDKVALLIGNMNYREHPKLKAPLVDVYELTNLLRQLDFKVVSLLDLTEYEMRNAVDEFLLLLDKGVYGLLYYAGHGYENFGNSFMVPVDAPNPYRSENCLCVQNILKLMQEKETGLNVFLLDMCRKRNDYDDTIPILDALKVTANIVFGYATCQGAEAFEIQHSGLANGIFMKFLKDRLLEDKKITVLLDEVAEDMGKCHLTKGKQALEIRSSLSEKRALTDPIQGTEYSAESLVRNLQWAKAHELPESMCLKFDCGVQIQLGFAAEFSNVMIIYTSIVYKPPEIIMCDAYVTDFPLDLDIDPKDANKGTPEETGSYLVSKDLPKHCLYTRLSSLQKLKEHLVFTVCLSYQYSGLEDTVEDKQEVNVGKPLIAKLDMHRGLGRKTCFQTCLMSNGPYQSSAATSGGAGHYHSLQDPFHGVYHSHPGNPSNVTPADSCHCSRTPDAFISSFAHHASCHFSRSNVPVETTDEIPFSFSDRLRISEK",
  "assay": "Evaluation of inhibition of protease activity of MALT1 (cleavage of fluorescent peptide substrate Ac-LRSR-AMC)",
  "type": "biochemical",
  "conditions": "substrate Ac-LRSR-AMC 20 μmol/L, 30° C. for 80 minutes",
  "procedure,_shortened": "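GST-tagged full-length human MALT1 from E. coli ([…]) was preincubated with compound 30 min at room temperature. Buffer: MES, 150 mM NaCl, 10% sucrose, 0.1% CHAPS, 10 mM DTT, 1 mol/L ammonium citrate. Ac-LRSR-AMC (20 μM final) was then cleaved 80 min at 30 °C; AMC fluorescence (Ex 380/Em 460) gain gave % inhibition versus no-enzyme and DMSO controls.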",
  "data": [
    {"compound": "Cl.N/C(=N\\S(=O)(=O)c1ccccc1)NCc1cnc(-c2ccc(Cl)cc2)c(-c2ccc(Cl)cc2)c1", "note": "[Compound of Example 2, N-(amino(((5,6-bis(4-chlorophenyl)pyridin-3-yl)methyl)amino)methylene)benzenesulfonamide Hydrochloride]", "values": [
      {"measurement": "IC50", "result": 270, "unit": "nM"}
    ]}
  ]
}
